# Entries after “also recorded” stand apart in the source; their conditions may differ. Structures can show the parent of a compound that is named as a salt.
# Assays:
# [1] = Lethality of yohimbine hydrochloride alone; format: in vivo; details: mice, 30 mg./kg., in words
# Method: After two hours, the LD50 are determined.
# oxotremorine [2] = details: in words, cited from earlier work; for block of oxotremorine hypothermic response: mice
# oxotremorine [3] = test: Hypothermic tests with oxotremorine: body temperature change; format: in vivo, mice; details: for Body Temperature °F. Change From Vehicle Control After 15 Minutes / Body Temperature °F. Change From Vehicle Control After 30 Minutes / Body Temperature °F. Change From Vehicle Control After 60 Minutes / Body Temperature °F. Change From Vehicle Control After 90 Minutes: ip, 0.5 h; for antagonism of oxotremorine temperature decrease: oxotremorine 0.6 mg./kg., in words
# Source text: Hypothermic tests with oxotermorine: [1-(4-pyrrolidino-2-butynyl)-2-pyrrolidinone].
# nicotine = details: control (untreated) mice, nicotine salicylate 2 mg./kg.
# yohimbine = format: in vivo, mice; details: Table VII
# Method: Ten male CF mice, 18-22 g., were injected with the anti-depressant and 30 minutes later with 30 mg. of yohimbine hydrochloride (YCl) in saline solution. After two hours, the LD50 are determined.
# oxotremorine [4] = format: in vivo, mice; details: Table VII
# Method: The present compounds were tested as follows. […] The lowering of the body temperature was measured rectally with an electronic thermometer, before and 30 minutes after drug administration. After the drug administration the mice were kept at 19° C. in cages. A four degree difference between the control mice (oxotremorine alone) and the treated mice (oxotremorine and test compound) was used to indicate the antagonistic action of the test compound.
# strychnine = format: in vivo; details: 3 mg./kg. intraperitoneally
# Method: The test consists in orally administering into groups of 6 mice the test compound, and 30 minutes later 3 mg./kg. strychnine sulfate intraperitoneally. The survivors after 4 hours reflect the activity of the compound as a muscle relaxant and antispasmodic.
# apomorphine = details: Table VII
smiles,measurement,setting,value
COC(=O)[C@@H]1[C@H]2C[C@H]3c4[nH]c5ccccc5c4CCN3C[C@@H]2CC[C@@H]1O [yohimbine hydrochloride],lethality of yohimbine hydrochloride alone,[1],non-lethal
same,lethality of yohimbine hydrochloride alone,[1]; listed as YCl,no death; also recorded: No mice or only one mouse is killed
CN1[C@@H]2CC[C@H]1C[C@@H](OC(=O)C(CO)c1ccccc1)C2 (stereo partly shown) [Atropine],block of oxotremorine hypothermic response,oxotremorine [2],blocked
CN(C)CCC=C1c2ccccc2CCc2ccccc21 [Amitriptyline],Body Temperature °F. Change From Vehicle Control After 15 Minutes,oxotremorine [3]; 25 mg/kg,+0.7 °F.
same,Body Temperature °F. Change From Vehicle Control After 30 Minutes,oxotremorine [3]; 25 mg/kg,- 2.4 °F.
same,Body Temperature °F. Change From Vehicle Control After 60 Minutes,oxotremorine [3]; 25 mg/kg,- 5.4 °F.
same,Body Temperature °F. Change From Vehicle Control After 90 Minutes,oxotremorine [3]; 25 mg/kg,- 6.8 °F.
CN1CCc2cccc3c2[C@H]1Cc1ccc(O)c(O)c1-3 [apomorphine],hypothermic response in mice,oxotremorine [2],produces hypothermic responses in mice
CN1CCC[C@H]1c1cccnc1 [nicotine salicylate],effect of nicotine salicylate in control mice,nicotine,running convulsions followed by (2) tonic extensor fits; followed by (3) death
CC(N)Cc1ccccc1 (stereo not shown) [Amphetamine],Body Temperature °F. Change From Vehicle Control After 15 Minutes,oxotremorine [3]; 5 mg/kg,-1.5 °F.
same,Body Temperature °F. Change From Vehicle Control After 30 Minutes,oxotremorine [3]; 5 mg/kg,- 4.3 °F.
same,Body Temperature °F. Change From Vehicle Control After 60 Minutes,oxotremorine [3]; 5 mg/kg,- 4.4 °F.
same,Body Temperature °F. Change From Vehicle Control After 90 Minutes,oxotremorine [3]; 5 mg/kg,- 2.2 °F.
CN(C)CCC=C1c2ccccc2COc2ccccc21 [Doxepine],Body Temperature °F. Change From Vehicle Control After 15 Minutes,oxotremorine [3]; 25 mg/kg,-2.3 °F.
same,Body Temperature °F. Change From Vehicle Control After 30 Minutes,oxotremorine [3]; 25 mg/kg,- 7.1 °F.
same,Body Temperature °F. Change From Vehicle Control After 60 Minutes,oxotremorine [3]; 25 mg/kg,-11.0 °F.
same,Body Temperature °F. Change From Vehicle Control After 90 Minutes,oxotremorine [3]; 25 mg/kg,-12.3 °F.
same,antagonism of oxotremorine temperature decrease,oxotremorine [3]; mice,antagonized
CN(C)CCCN1c2ccccc2CCc2ccccc21 [Imipramine],block of oxotremorine hypothermic response,oxotremorine [2],blocked
same,Body Temperature °F. Change From Vehicle Control After 15 Minutes,oxotremorine [3]; 25 mg/kg,-0.4 °F.
same,Body Temperature °F. Change From Vehicle Control After 30 Minutes,oxotremorine [3]; 25 mg/kg,- 3.3 °F.
same,Body Temperature °F. Change From Vehicle Control After 60 Minutes,oxotremorine [3]; 25 mg/kg,- 5.6 °F.
same,Body Temperature °F. Change From Vehicle Control After 90 Minutes,oxotremorine [3]; 25 mg/kg,- 6.4 °F.
same,antagonism of oxotremorine temperature decrease,oxotremorine [3]; mice,antagonized
CNCCCN1c2ccccc2CCc2ccccc21 [Desipramine],Body Temperature °F. Change From Vehicle Control After 15 Minutes,oxotremorine [3]; 25 mg/kg,-3.5 °F.
same,Body Temperature °F. Change From Vehicle Control After 30 Minutes,oxotremorine [3]; 25 mg/kg,- 3.5 °F.
same,Body Temperature °F. Change From Vehicle Control After 60 Minutes,oxotremorine [3]; 25 mg/kg,- 4.1 °F.
same,Body Temperature °F. Change From Vehicle Control After 90 Minutes,oxotremorine [3]; 25 mg/kg,- 3.6 °F.
same,antagonism of oxotremorine temperature decrease,oxotremorine [3]; mice,antagonized
"O=C1CCCN1CC#CCN1CCCC1 [Oxotremorine, 1-(4-pyrrolidino-2-butynyl)-2-pyrrolidinone]",hypothermic response in mice,oxotremorine [2],produces hypothermic responses in mice
same,decrease of body temperature of a mouse,"oxotremorine [3]; 0.6 mg./kg., mouse kept at room temperature",about 13 ° F.
same,time of peak hypothermia after administration,oxotremorine [3]; mice,60 min
"NCc1nnc2n1-c1ccc(Cl)cc1C(c1ccccc1)=NC2 [1-(Aminomethyl)-8-chloro-6-phenyl-4H-s-triazolo[4,3-a][1,4]benzodiazepine]",YO (Yohimbine test),yohimbine,35.4
same,Oxo (oxotremorine test),oxotremorine [4],29.7
O=C1C[C@@H]2OCC=C3CN4CC[C@]56c7ccccc7N1[C@H]5[C@H]2[C@H]3C[C@H]46 [strychnine sulfate],lethality of strychnine sulfate in control mice,strychnine,routinely fatal to all the control mice
COc1cc2c(cc1OC)C1CC(=O)C(CC(C)C)CN1CC2 (stereo not shown) [tetrabenazine],hypothermic response in mice,oxotremorine [2],produces hypothermic responses in mice
"CN(C)Cc1nnc2n1-c1ccc(Cl)cc1C(c1ccccc1Cl)=NC2 [8-Chloro-1-[(dimethylamino)methyl]-6-(o-chlorophenyl)-4H-s-triazolo[4,3-a][1,4]benzodiazepine]",Ap (Apomorphine test),apomorphine,17.8

# Source: patent US4250094A, “1-(Aminoalkyl) substituted-6-phenyl-4H-s-triazolo[4,3-a][1,4]benzodiazepines” (priority 1979, dated 1981)
